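In this assay, cells in 96-well plates receive the compound at five concentrations for 48 hours. Endpoints are linearly interpolated between the surrounding concentrations. GI50 = concentration required for 50% inhibition of growth. Definition used: TGI = concentration required for complete inhibition of growth.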
Legend:
Test in all cases: NCI anticancer screen, dose series, 48 h
HOP-62 NSCLC = system: HOP-62 NSCLC
EKVX NSCLC = system: EKVX NSCLC
RXF 393 renal = system: RXF 393 renal
IGROV1 ovarian = system: IGROV1 ovarian
NCI/ADR-RES ovarian = system: NCI/ADR-RES ovarian
OVCAR-8 ovarian = system: OVCAR-8 ovarian
SK-OV-3 ovarian = system: SK-OV-3 ovarian
NCI-H226 lung = system: NCI-H226 lung
ACHN renal = system: ACHN renal
SW-620 colon = system: SW-620 colon
BT-549 breast = system: BT-549 breast
SR leukemia = system: SR leukemia
CCRF-CEM leukemia = system: CCRF-CEM leukemia

Row | Compound | TGI (HOP-62 NSCLC) [µM] | TGI (EKVX NSCLC) [µM] | TGI (RXF 393 renal) [µM] | TGI (IGROV1 ovarian) [µM] | TGI (NCI/ADR-RES ovarian) [µM] | TGI (OVCAR-8 ovarian) [µM] | TGI (SK-OV-3 ovarian) [µM] | TGI (NCI-H226 lung) [µM] | TGI (ACHN renal) [µM] | TGI (SW-620 colon) [µM] | TGI (BT-549 breast) [µM] | TGI (SR leukemia) [µM] | TGI (CCRF-CEM leukemia) [µM] | GI50 (EKVX NSCLC) [µM] | GI50 (RXF 393 renal) [µM] | GI50 (IGROV1 ovarian) [µM] | GI50 (NCI/ADR-RES ovarian) [µM] | GI50 (NCI-H226 lung) [µM] | GI50 (ACHN renal) [µM] | GI50 (CCRF-CEM leukemia) [µM]
1 | C=C1C(=O)OC2/C=C(\CO)C3OC3C3OC3(C)CC(OC(=O)/C(=C/C)COC(C)=O)C12 (configuration not stated) | 40.4 | 9.58 | 3.96 | 29.5 | 41.8 | 6.22 | 45.7 | 40.8 | 9.68 | 2.8 | 3.48 |  |  |  |  |  |  |  |  | 
2 | COc1ccc(C(=O)c2[nH]c(Nc3cc(C)ccn3)c(C(=S)Nc3ccccc3)c2N)cc1 | 72.2 | > 100 | 38.4 | 42 | 24.3 | 52.4 | 47 | 47.3 | 97.4 | 71 | 42.5 | > 100 |  |  |  |  |  |  |  | 
3 | Cc1c2cnccc2c(C)c2c1c1ccccc1n2CCCCCCCl | > 50 | > 50 | > 50 | > 50 | > 50 | > 50 | > 50 | > 46.7 |  | > 50 |  |  | > 50 |  |  |  |  |  |  | 
4 | Nc1nc2cc(COc3ccc(C(=O)O)cc3)ccc2nc1-c1ccccc1 | > 10 | > 10 | > 10 | > 10 |  |  | > 10 | > 10 | > 10 | > 10 |  | > 10 | > 10 |  |  |  |  |  |  | 
5 | Cc1ccc(C(=O)c2[nH]c(NCc3ccccc3)c(C(=S)Nc3ccccc3)c2N)cc1 | 29.2 | 26.5 | 20.7 | 19.9 | 8.51 | 26.1 | 8.04 | 32.3 | 23.5 | 5.19 | 20.3 |  | 28.9 |  |  |  |  |  |  | 
6 | Nc1nc(N)c2ncn(Cc3ccccc3CO)c2n1 | > 100 | > 100 |  | > 100 | > 100 | > 100 | > 100 | > 100 | > 100 | > 100 | > 100 | > 100 | > 100 |  |  |  |  |  |  | 
7 | O=C1Sc2sc(=S)sc2SC1c1ccccc1 (configuration not stated) | > 100 | > 100 | 76.6 | > 100 | > 100 | > 100 | > 100 | > 100 |  | 39.3 |  |  | 91.5 |  |  |  |  |  |  | 
8 | COc1cnc2oc3ccc(O)cc3c2c1-c1ccccc1 | > 100 | > 100 | > 100 |  | > 100 | > 100 | > 100 |  | > 100 | > 100 | > 100 |  | > 100 |  |  |  |  |  |  | 
9 | O=C(c1ccsc1)c1nccc2c1cnc1ccccc12 | > 100 | 88.4 | > 100 | 17.1 | > 100 | > 100 | > 100 | > 100 | > 100 | > 100 | > 100 |  | > 100 |  |  |  |  |  |  | 
10 | COc1ccc(C)cc1NC(=S)N/N=C/c1ccco1 | > 100 | 64.3 | > 100 | > 100 | > 100 | > 100 | > 100 | > 100 | > 100 | > 100 | > 100 | > 100 | > 100 |  |  |  |  |  |  | 
11 | O=c1c2cc([N+](=O)[O-])ccc2[nH]n1Cc1ccccc1Cl | > 100 | > 100 | > 100 | > 100 | > 100 | > 100 |  | > 100 | > 100 | > 100 |  | > 100 | > 100 |  |  |  |  |  |  | 
12 | O=C(N/N=C/c1cc(Cl)cc(Cl)c1[O-])c1ccccc1O.O=C(N/N=C/c1cc(Cl)cc(Cl)c1[O-])c1ccccc1O.[Mn+2] |  | 11.2 | 5.7 |  |  | 2.3 | 3.58 | 6.59 | 11.9 | 17.7 |  | 0.832 |  | 0.861 |  |  |  |  |  | 
13 | O=C(O)C(C1NCCS1)N1C(=O)c2ccccc2C1=O (configuration not stated) | > 100 | > 100 | > 100 | > 100 | > 100 | > 100 | > 100 | > 100 | > 100 | > 100 | > 100 | > 100 | > 100 |  |  |  |  |  |  | 
14 | COc1cccc(/C=N/[N+](C)(C)C)c1O | > 10 | > 10 | > 10 | > 10 | > 10 | > 10 | > 10 | > 10 | > 10 | > 10 | > 10 |  | > 10 |  |  |  |  |  |  | 
15 | Cc1ccnn1CCc1ccc(Cl)cc1Cl | 32.5 | 20.7 | 82.9 | > 100 | > 100 | > 100 | > 100 |  | > 100 | > 100 | 31.3 | > 100 | > 100 |  |  |  |  |  |  | 
16 | COc1ccc2[nH]c(=O)cc(C)c2c1[N+](=O)[O-] | > 100 | > 100 |  | > 100 |  | > 100 | > 100 | > 100 | > 100 | > 100 |  |  | > 100 |  |  |  |  |  |  | 
17 | COc1cc2c(/C=C3/C(=O)Nc4cc(C)c(O)cc43)c(Cl)[nH]c2cc1C | 10.9 |  | 7.1 | 18.8 | 12.8 | 15.7 | 8.32 | 23.6 | 17.9 | 12.4 | 45.3 | 2.05 | 2.02 |  |  |  |  |  |  | 
18 | CC(C)(C(=O)N(C(=O)N1CCN(c2ccccc2)CC1)S(=O)(=O)c1ccccc1)c1ccc(Cl)cc1 | > 100 | 63.1 | > 100 |  | > 100 | > 100 | > 100 | > 100 | > 100 | > 100 | > 100 | > 100 | > 100 |  |  |  |  |  |  | 
19 | CCOC(=O)C1=C(C)N(Cc2ccccc2)C2(O)C=CC(=O)C3C(=O)N(c4ccccc4)C(=O)C132 (configuration not stated) | 5.52 | 22.5 | 2.94 | 4.32 | 10.6 | 3.32 | 19.3 | 5.7 | 3.25 |  |  | 2.88 | 5.51 |  |  |  |  |  |  | 
20 | C=C1C(=O)OC2/C=C(CO)/C=C\C3OC3(C)CC(OC(=O)/C(C)=C/COC(C)=O)C12 (configuration not stated) | 35.5 | 12.8 | 4.12 | 23.9 | 15.8 | 7 | 31.7 | 27.7 | 9.16 | 3.24 | 3.25 | 13.7 |  |  |  |  |  |  |  | 
21 | C=CCn1c(C)nc2cc(Nc3nc(N4CCCC4)nc4nc[nH]c34)ccc21 |  |  | > 100 | > 100 | > 100 |  |  | > 100 | > 100 |  |  |  | > 100 |  | > 100 | > 100 | > 100 | > 100 | > 100 | 54.5
22 | CS(C)(=O)=Nn1c(=O)n2n(c1=O)[C@H]1CC[C@@H]2C1 | > 100 | > 100 | > 100 | > 100 | > 100 | > 100 | > 100 | > 100 | > 100 | > 100 |  | > 100 | > 100 |  |  |  |  |  |  | 
23 | O=C1C=CC2(C=C1)O[C@H](CCc1ccccc1)[C@@H](CCc1ccccc1)O2 | > 100 | 83.3 | > 100 | > 100 | > 100 | > 100 | > 100 | > 100 | > 100 | > 100 | > 100 | > 100 | > 100 |  |  |  |  |  |  | 
24 | CSc1nc2c(ncn2C2OC(CO)C(O)C(O)C2O)c(=O)n1C (configuration not stated) | > 100 | > 100 | > 100 | > 100 | > 100 | > 100 | > 100 | > 100 |  | > 100 |  |  | > 100 |  |  |  |  |  |  | 

— PubChem BioAssay (NCI)
